Test results published in patent US9708314B2, “Heterocyclic amide compound” (NISSAN CHEMICAL INDUSTRIES, LTD., priority 2013, dated 2017).

Columns and labels:
Type in all cases: in vivo
[1] = tested on: Echinochloa oryzacola Vasing.; test: Test Example 2: herbicidal activity, application during weed generation in submerged conditions; settings: Eighteenth Table; application herbicide amount 320 g/ha
Method in brief: (§1)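 Paddy-type pot test: flooded soil, 4 cm depth, greenhouse 25–30 °C. Emulsion formulation diluted in water, applied to water surface at 1–2 leaf stage; rate expressed as g/ha. Read-out at 3 wk, 0–5 score.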

[2] = tested on: Scirpus juncoides; test: as above; settings: Eighteenth Table; application herbicide amount 320 g/ha
Method in brief: as §1

[3] = tested on: Monochoria vaginalis; test: as above; settings: Eighteenth Table; application herbicide amount 320 g/ha
Method in brief: as §1

[4] = tested on: Scirpus juncoides; test: Test Example 1: herbicidal activity, application before weed generation in submerged conditions; settings: Seventeenth Table; for B (Scirpus juncoides) herbicidal ratio grade: application herbicide amount 320 g/ha; for B: Scirpus juncoides (herbicidal effect grade): Application herbicide amount 320 g/ha
Method in brief: (§2)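 Submerged pot test: alluvial soil, 4 cm water, seeds sown mixed, 2.5-leaf rice transplanted; emulsion in water applied to surface day of sowing, dose g/ha; greenhouse 25–30° C.; 3 wk; 0–5 rating.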

[5] = tested on: Monochoria vaginalis; test: as above; settings: Seventeenth Table; for C (Monochoria vaginalis) herbicidal ratio grade: application herbicide amount 320 g/ha; for C: Monochoria vaginalis (herbicidal effect grade): Application herbicide amount 320 g/ha
Method in brief: as §2

[6] = tested on: transplanted Oryza sativa; test: Test Example 1: effect on crop, application before weed generation in submerged conditions; settings: Seventeenth Table; for a (transplanted Oryza sativa) effect on crop grade: application herbicide amount 320 g/ha; for a: transplanted Oryza sativa (effect on crop grade): Application herbicide amount 320 g/ha
Method in brief: as §2

[7] = tested on: Cyperus difformis; test: Test Example 3: herbicidal effect by application to foliage (Wagner pot, water depth 0.1-0.5 cm); settings: Nineteenth Table; application to foliage; application herbicide amount 320 g/ha
Method in brief: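 Foliar spray, 14-day-old plants, emulsion diluted to target g/ha; rated 3 wk post-application, 0–5 scale (0 ≤5%, 5 ≥90% herbicidal ratio). Greenhouse 25–30 °C, alluvial soil.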

Compound | A (Echinochloa oryzicola Vasing.) herbicidal ratio grade [1] | B (Scirpus juncoides) herbicidal ratio grade [2] | C (Monochoria vaginalis) herbicidal ratio grade [3] | B (Scirpus juncoides) herbicidal ratio grade [4] | C (Monochoria vaginalis) herbicidal ratio grade [5] | a (transplanted Oryza sativa) effect on crop grade [6] | E (herbicidal effect grade) [7] | B: Scirpus juncoides (herbicidal effect grade) [4] | C: Monochoria vaginalis (herbicidal effect grade) [5] | a: transplanted Oryza sativa (effect on crop grade) [6]
CCSc1nnc2c(C(=O)Nc3nnnn3CCOC)ccc(C(F)(F)F)n12 [2-098] | 5 (Herbicidal ratio of 90% or more (almost completely withered)) | 4 (Herbicidal ratio of 70% or more and less than 90%) | 3 (Herbicidal ratio of 40% or more and less than 70%) | 5 (Herbicidal ratio of 90% or more (almost completely withered)) | 4 (Herbicidal ratio of 70% or more and less than 90%) | 2 (Herbicidal ratio of 20% or more and less than 40%) | 5 (Herbicidal ratio of 90% or more (almost completely withered)) |  |  | 
CN(CCC#N)c1nnc2c(C(=O)Nc3nnco3)ccc(C(F)(F)F)n12 [1-164] | 4 (Herbicidal ratio of 70% or more and less than 90%) | 4 (Herbicidal ratio of 70% or more and less than 90%) | 4 (Herbicidal ratio of 70% or more and less than 90%) |  |  |  | 4 (Herbicidal ratio of 70% or more and less than 90%) | 5 (Herbicidal ratio of 90% or more (almost completely withered)) | 4 (Herbicidal ratio of 70% or more and less than 90%) | 3 (Herbicidal ratio of 40% or more and less than 70%)
Cn1nnnc1NC(=O)c1ccc(C(F)(F)F)n2c(SC3CCCC3)nnc12 [2-096] | 3 (Herbicidal ratio of 40% or more and less than 70%) | 3 (Herbicidal ratio of 40% or more and less than 70%) | 3 (Herbicidal ratio of 40% or more and less than 70%) |  |  |  | 5 (Herbicidal ratio of 90% or more (almost completely withered)) | 5 (Herbicidal ratio of 90% or more (almost completely withered)) | 4 (Herbicidal ratio of 70% or more and less than 90%) | 3 (Herbicidal ratio of 40% or more and less than 70%)
Cc1nnc(NC(=O)c2ccc(C(F)(F)F)n3c(CC(=O)NC(C)C)nnc23)o1 [1-061] | 0 (Herbicidal ratio of 5% or less (almost no effect)) | 1 (Herbicidal ratio of 5% or more and less than 20%) | 1 (Herbicidal ratio of 5% or more and less than 20%) |  |  |  | 3 (Herbicidal ratio of 40% or more and less than 70%) |  |  | 
COCCc1nnc2c(C(=O)Nc3nnc(C)o3)ccc(C(F)(F)F)n12 [1-173] | 3 (Herbicidal ratio of 40% or more and less than 70%) | 2 (Herbicidal ratio of 20% or more and less than 40%) | 2 (Herbicidal ratio of 20% or more and less than 40%) |  |  |  |  |  |  | 
CCSc1nnc2c(C(=O)Nc3ncnn3C)ccc(C(F)(F)F)n12 [4-003] |  |  |  | 2 (Herbicidal ratio of 20% or more and less than 40%) | 0 (Herbicidal ratio of 5% or less (almost no effect)) | 0 (Herbicidal ratio of 5% or less (almost no effect)) | 0 (Herbicidal ratio of 5% or less (almost no effect)) |  |  | 
C#CCN(C)c1nnc2c(C(=O)Nc3nnco3)ccc(C(F)(F)F)n12 [1-163] | 4 (Herbicidal ratio of 70% or more and less than 90%) |  |  |  |  |  | 4 (Herbicidal ratio of 70% or more and less than 90%) | 4 (Herbicidal ratio of 70% or more and less than 90%) | 4 (Herbicidal ratio of 70% or more and less than 90%) | 2 (Herbicidal ratio of 20% or more and less than 40%)
C=CCN(C)c1nnc2c(C(=O)Nc3nnc(C)o3)ccc(C(F)(F)F)n12 [1-166] | 2 (Herbicidal ratio of 20% or more and less than 40%) | 3 (Herbicidal ratio of 40% or more and less than 70%) |  |  |  |  |  | 3 (Herbicidal ratio of 40% or more and less than 70%) | 2 (Herbicidal ratio of 20% or more and less than 40%) | 0 (Herbicidal ratio of 5% or less (almost no effect))
Cc1nnc(NC(=O)c2ccc(C(F)(F)F)n3c(CC#N)nnc23)o1 [1-168] | 2 (Herbicidal ratio of 20% or more and less than 40%) | 2 (Herbicidal ratio of 20% or more and less than 40%) |  |  |  |  |  |  |  | 
C=CCc1nnc2c(C(=O)Nc3nnco3)ccc(C(F)(F)F)n12 [1-158] | 2 (Herbicidal ratio of 20% or more and less than 40%) | 3 (Herbicidal ratio of 40% or more and less than 70%) | 0 (Herbicidal ratio of 5% or less (almost no effect)) |  |  |  | 4 (Herbicidal ratio of 70% or more and less than 90%) | 4 (Herbicidal ratio of 70% or more and less than 90%) | 0 (Herbicidal ratio of 5% or less (almost no effect)) | 0 (Herbicidal ratio of 5% or less (almost no effect))
Cc1nnc(NC(=O)c2ccc(C(F)(F)F)n3c(CC(F)(F)F)nnc23)o1 [1-162] | 3 (Herbicidal ratio of 40% or more and less than 70%) | 1 (Herbicidal ratio of 5% or more and less than 20%) | 0 (Herbicidal ratio of 5% or less (almost no effect)) |  |  |  | 2 (Herbicidal ratio of 20% or more and less than 40%) | 2 (Herbicidal ratio of 20% or more and less than 40%) | 0 (Herbicidal ratio of 5% or less (almost no effect)) | 0 (Herbicidal ratio of 5% or less (almost no effect))
Cn1nnnc1NC(=O)c1ccc(C(F)(F)F)n2c(SCc3ccc(Cl)nc3)nnc12 [2-097] | 0 (Herbicidal ratio of 5% or less (almost no effect)) | 2 (Herbicidal ratio of 20% or more and less than 40%) | 2 (Herbicidal ratio of 20% or more and less than 40%) |  |  |  | 4 (Herbicidal ratio of 70% or more and less than 90%) | 4 (Herbicidal ratio of 70% or more and less than 90%) | 3 (Herbicidal ratio of 40% or more and less than 70%) | 1 (Herbicidal ratio of 5% or more and less than 20%)
